Source: patent US8569267B2, “Tetracyclic tetrahydrofuran derivatives containing cyclic amine side chain” (Janssen Pharmaceutica, NV, priority 2005, dated 2013)

Tests used:
[1] = target: T1, human cloned 5-HT2C receptor, expressed in CHO cells (Homo sapiens, UniProt P28335); assay: In vitro binding affinity for 5-HT2C receptor ([3H]mesulergine radioligand binding); conditions: human cloned 5-HT2C receptor; for IC50: read-out: 5-HT2C pIC50 (converted)
T1 construct: expressed in transfected cells; host or cells: CHO cells
T1 sequence (P28335 33-458): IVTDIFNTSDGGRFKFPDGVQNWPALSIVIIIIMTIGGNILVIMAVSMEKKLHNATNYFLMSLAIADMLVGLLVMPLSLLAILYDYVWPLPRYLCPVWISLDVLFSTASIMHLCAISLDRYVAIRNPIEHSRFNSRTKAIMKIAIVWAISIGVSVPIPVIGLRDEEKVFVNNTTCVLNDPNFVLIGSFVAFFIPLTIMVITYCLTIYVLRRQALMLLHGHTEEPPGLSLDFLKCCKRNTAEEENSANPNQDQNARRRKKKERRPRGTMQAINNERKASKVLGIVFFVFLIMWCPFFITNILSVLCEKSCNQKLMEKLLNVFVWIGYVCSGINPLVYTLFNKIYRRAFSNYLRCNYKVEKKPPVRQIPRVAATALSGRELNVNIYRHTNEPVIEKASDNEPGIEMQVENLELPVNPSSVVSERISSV
Experimental: (§1) In Vitro Binding Affinity for 5-HT2A and 5-HT2C Receptors
(§2) The interaction of the compounds of Formula (I) with 5-HT2A and 5-HT2C receptors was assessed in in vitro radioligand binding experiments. […] During the incubation, the radioligands bind to the receptor. When equilibrium of binding is reached, the receptor bound radioactivity is separated from the non-bound radioactivity, and the receptor bound activity is counted. The interaction of the test compounds with the receptors is assessed in competition binding experiments. Various concentrations of the test compound are added to the incubation mixture containing the tissue preparation and the radioligand. Binding of the radioligand will be inhibited by the test compound in proportion to its binding affinity and its concentration.

[2] = target: T2, human cloned 5-HT2A receptor, expressed in L929 cells (Homo sapiens, UniProt P28223); assay: In vitro binding affinity for 5-HT2A receptor ([125I]R91150 radioligand binding); conditions: human cloned 5-HT2A receptor in L929 cells, [125I]R91150; for IC50: read-out: 5-HT2A pIC50 (converted)
T2 construct: expressed in transfected cells; host or cells: L929 cells
T2 sequence (P28223 whole entry): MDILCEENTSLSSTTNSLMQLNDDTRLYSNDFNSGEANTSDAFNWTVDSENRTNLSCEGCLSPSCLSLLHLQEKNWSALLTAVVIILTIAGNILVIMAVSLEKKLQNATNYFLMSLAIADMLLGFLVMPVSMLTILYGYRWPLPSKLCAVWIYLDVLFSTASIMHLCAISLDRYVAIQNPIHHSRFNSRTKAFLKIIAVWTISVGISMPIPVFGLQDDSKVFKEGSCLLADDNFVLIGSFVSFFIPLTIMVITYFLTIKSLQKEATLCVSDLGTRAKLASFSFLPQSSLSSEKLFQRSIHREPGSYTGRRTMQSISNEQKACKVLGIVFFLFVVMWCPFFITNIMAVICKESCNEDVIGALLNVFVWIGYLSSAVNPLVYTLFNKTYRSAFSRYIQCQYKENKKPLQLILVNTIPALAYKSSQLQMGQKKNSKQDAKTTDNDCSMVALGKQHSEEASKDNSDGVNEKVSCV
Experimental: as §1
as §2, with “concentration. The affinities of the compounds for the 5-HT2 receptors were measured by means of radioligand binding studies conducted with: (a) human cloned 5-HT2A receptor, expressed in L929 cells using [^125I]R91150 as radioligand and (b) human cloned 5-HT2C receptor, expressed in CHO cells using [^3H]mesulergine as radioligand.” for “concentration.”

[3] = target: T3, human Dopamine D2L receptor (Homo sapiens, UniProt P14416); assay: In vitro binding affinity for human D2L receptor ([3H]Spiperone binding); conditions: human D2L receptor-transfected CHO cell membranes; for IC50: read-out: D2L pIC50 (converted)
T3 construct: expressed in transfected cells; host or cells: CHO cells
T3 sequence (P14416 whole entry): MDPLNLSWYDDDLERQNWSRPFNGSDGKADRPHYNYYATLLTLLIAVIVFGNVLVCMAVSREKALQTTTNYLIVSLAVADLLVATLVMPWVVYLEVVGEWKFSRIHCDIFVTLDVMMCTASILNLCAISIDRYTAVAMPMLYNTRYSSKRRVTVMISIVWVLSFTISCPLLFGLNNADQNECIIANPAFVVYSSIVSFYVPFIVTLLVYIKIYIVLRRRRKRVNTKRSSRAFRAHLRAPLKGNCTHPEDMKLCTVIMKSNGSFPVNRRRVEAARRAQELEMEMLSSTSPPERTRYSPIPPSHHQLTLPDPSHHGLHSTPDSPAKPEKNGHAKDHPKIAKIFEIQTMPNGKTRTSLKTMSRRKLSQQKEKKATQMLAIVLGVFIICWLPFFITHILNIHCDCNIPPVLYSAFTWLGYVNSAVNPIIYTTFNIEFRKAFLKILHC
Experimental: In Vitro Binding Affinity for Human D2L Receptor
Frozen membranes of human Dopamine D2L receptor-transfected CHO cells were thawed, briefly homogenised using an Ultra-Turrax T25 homogeniser and diluted in Tris-HCl assay buffer containing NaCl, CaCl2, MgCl2, KCl (50, 120, 2, 1, and 5 mM respectively, adjusted to pH 7.7 with HCl) to an appropriate protein concentration optimised for specific and non-specific binding. Radioligand [^3H]Spiperone (NEN, specific activity ˜70 Ci/mmol) was diluted in assay buffer at a concentration of 2 nmol/L. Prepared radioligand (50 μl), along with 50 μl of either the 10% DMSO control, Butaclamol (10^−6 mol/l final concentration), or compound of interest, was then incubated (30 min, 37° C.) with 400 μl of the prepared membrane solution. Membrane-bound activity was filtered through a Packard Filtermate harvester onto GF/B Unifilterplates and washed with ice-cold Tris-HCl buffer (50 mM; pH 7.7; 6×0.5 ml). Filters were allowed to dry before adding scintillation fluid and counting in a Topcount scintillation counter. Percentage specific bound and competition binding curves were calculated using S-Plus software (Insightful).

[4] = target: T4, NET (norepinephrine transporter) (Rattus norvegicus, UniProt Q63380); assay: In vitro determination of NET reuptake inhibition ([3H]Nixosetine binding, rat brain cortex); conditions: rat brain cortex; for IC50: read-out: NET pIC50 (converted)
T4 construct: Cortex from rat brain was collected and homogenised; from tissue; host or cells: rat brain cortex
T4 sequence (Q63380 1-617): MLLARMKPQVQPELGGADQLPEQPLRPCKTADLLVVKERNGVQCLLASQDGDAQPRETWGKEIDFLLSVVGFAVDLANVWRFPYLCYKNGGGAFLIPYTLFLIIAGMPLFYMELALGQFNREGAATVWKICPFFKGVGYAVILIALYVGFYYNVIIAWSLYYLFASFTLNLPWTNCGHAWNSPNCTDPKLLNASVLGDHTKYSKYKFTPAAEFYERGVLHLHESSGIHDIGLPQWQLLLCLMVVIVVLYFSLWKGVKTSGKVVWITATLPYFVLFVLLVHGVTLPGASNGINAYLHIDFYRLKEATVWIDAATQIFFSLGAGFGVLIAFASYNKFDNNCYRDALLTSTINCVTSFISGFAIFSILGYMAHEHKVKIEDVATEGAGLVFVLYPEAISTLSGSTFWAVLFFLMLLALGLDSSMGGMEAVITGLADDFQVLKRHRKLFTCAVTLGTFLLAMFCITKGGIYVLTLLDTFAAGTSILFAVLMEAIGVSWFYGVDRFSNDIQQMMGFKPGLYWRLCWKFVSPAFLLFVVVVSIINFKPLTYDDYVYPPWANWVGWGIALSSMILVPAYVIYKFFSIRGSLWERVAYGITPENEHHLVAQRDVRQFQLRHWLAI
Experimental: In Vitro Determination of NET Reuptake Inhibition
Cortex from rat brain was collected and homogenised using an Ultra-Turrax T25 and a Dual homogeniser in ice-cold homogenising buffer containing Tris, NaCl and KCl (50 mM, 120 mM and 5 mM, respectively, pH 7.4) prior to dilution to an appropriate protein concentration optimised for specific and non-specific binding. […] Membrane-bound activity was detected by filtration through a Packard Filtermate harvester onto GF/B Unifilterplates, washed with ice-cold Tris-HCl buffer, containing NaCl and KCl (50 mM, 120 mM and 4 mM; pH 7.4; 6×0.5 ml). Filters were allowed to dry for 24 h before adding scintillation fluid. Scintillation fluid was allowed to saturate filters for 24 h before counting in a Topcount scintillation counter. Percentage specific bound and competition binding curves were calculated using S-Plus software (Insightful).

Structure (SMILES)	IC50 [1]	IC50 [2]	IC50 [3]	IC50 [4]	5-HT2C pIC50 [1]	5-HT2A pIC50 [2]	D2L pIC50 [3]	NET pIC50 [4]
CCCCCC(=Cc1ccccc1)CN1CCN(CC2CC3c4ccccc4Cc4ccc(F)cc4C3O2)CC1 (stereo not drawn) [Compound 50]	105 nM	34.7 nM	70.8 nM	2140 nM				
N#CC1=CCN(C[C@H]2C[C@@H]3c4ccccc4Cc4ccc(F)cc4[C@@H]3O2)CC1.O=C(O)C(F)(F)F [Compound 270]					7.45	7.18	6.67	5.78
N#Cc1ccc(C(=O)NC2CCN(CC3CC4c5ccccc5Cc5ccc(F)cc5C4O3)CC2)cc1 (stereo not drawn) [Compound 236]	9.55 nM	1.51 nM	6.76 nM	> 10000 nM				
COc1ccc2c(c1)C1OC(CN3CCC(O)CC3)CC1c1ccccc1O2.O=C(O)C(=O)O (racemic) [Compound 288]					6.71	7.18	6.08	<5
COc1ccccc1OC1CCN(CC2CC3c4ccccc4Cc4ccc(F)cc4C3O2)C1 (mixture of isomers) [Compound 32]	0.912 nM	2.19 nM	7.41 nM	7410 nM				
CCOC(=O)C1CCCCN1CC1CC2c3ccccc3Cc3ccc(F)cc3C2O1 (mixture of isomers) [Compound 158]	33.1 nM	23.4 nM	355 nM	> 10000 nM				
C=CCOC(=O)N1CCN(CC2CC3c4ccccc4Cc4ccc(F)cc4C3O2)CC1 (stereo not drawn) [Compound 84]	25.1 nM	8.13 nM	25.7 nM	> 10000 nM				
Fc1ccc2c(c1)C1OC(CN3CCN(c4ccc(C(F)(F)F)cn4)CC3)CC1c1ccccc1C2 (stereo not drawn) [Compound 120]	87.1 nM	35.5 nM	363 nM	> 10000 nM				
O=C(O)C(=O)O.OC1CCN(CC2CC3c4ccccc4Oc4ccc(Cl)cc4C3O2)CC1 (stereo not drawn) [Compound 285]					7.76	8.56	7.49	<5
O=C(NCCCc1ccccc1)N1CCN(CC2CC3c4ccccc4Cc4ccc(F)cc4C3O2)CC1 (stereo not drawn) [Compound 93]	5.01 nM	2.57 nM	11.7 nM	4170 nM				
Fc1ccc2c(c1)C1OC(CN3CCN(Cc4ccco4)CC3)CC1c1ccccc1C2 (stereo not drawn) [Compound 60]	25.1 nM	7.76 nM	6.31 nM	1550 nM				
Fc1ccc2c(c1)C1OC(CN3CCN(c4ccccn4)CC3)CC1c1ccccc1C2 (stereo not drawn) [Compound 117]	2.51 nM	1.48 nM	15.5 nM	4570 nM				
OCC1CN(CC2CC3c4ccccc4Cc4ccc(F)cc4C3O2)CCO1 (mixture of isomers) [Compound 128, [2R-(2aα, 3aα, 12bβ)]-(3′RS)-[4-(11-fluoro-3,3a,8,12b-tetrahydro-2H-1-oxa-dibenzo[e,h]azulen-2-ylmethyl)-morpholin-2-yl]-methanol.oxalate (1:1)]	11.7 nM	4.37 nM	18.6 nM	2630 nM				
O=C(NCc1ccccc1)OCC1CCN(CC2CC3c4ccccc4Cc4ccc(F)cc4C3O2)C1 (mixture of isomers) [Compound 24]	1.45 nM	1.82 nM	4.27 nM	2690 nM				
O=C(NCCC(c1ccccc1)c1ccccc1)C1CCN(CC2CC3c4ccccc4Cc4ccc(F)cc4C3O2)CC1 (stereo not drawn) [Compound 198]	16.2 nM	8.13 nM	25.1 nM	7590 nM				
CC(=O)OCCN1[C@H](C)CN(C[C@H]2C[C@@H]3c4ccccc4Cc4ccc(F)cc4[C@@H]3O2)C[C@@H]1C.O=C(O)C(=O)O [Compound 281]					7.87	8.39	7.74	<5
Fc1ccc2c(c1)C1OC(CN3CCC(Oc4ccccc4F)C3)CC1c1ccccc1C2 (mixture of isomers) [Compound 34]	0.427 nM	7.24 nM	10 nM	6170 nM				
Fc1ccc2c(c1)C1OC(CN3CCN(c4ncccc4C(F)(F)F)CC3)CC1c1ccccc1C2 (stereo not drawn) [Compound 121]	77.6 nM	13.2 nM	77.6 nM	3550 nM				
O=C(OC1CCN(CC2CC3c4ccccc4Cc4ccc(F)cc4C3O2)C1)c1ccc(F)cc1 (mixture of isomers) [Compound 16]	2.82 nM	5.62 nM	5.13 nM	2000 nM				
COc1ccc(NC(=S)N2CCN(CC3CC4c5ccccc5Cc5ccc(F)cc5C4O3)CC2)cc1 (stereo not drawn) [Compound 112]	21.9 nM	3.31 nM	20.4 nM	933 nM				
COc1cc2c(cc1OC)CN(C[C@H]1C[C@@H]3c4ccccc4Cc4ccc(F)cc4[C@@H]3O1)CC2 [Compound 276]	1.15 nM	1.02 nM	17 nM	> 10000 nM				
CN(C)CCC1CN(C[C@H]2C[C@@H]3c4ccccc4Cc4ccc(F)cc4[C@@H]3O2)CCO1 (stereo partly drawn) [Compound 132]	33.1 nM	33.1 nM	389 nM	5750 nM				
O=C(NC1CCCCCCC1)N1CCN(C[C@H]2C[C@@H]3c4ccccc4Cc4ccc(F)cc4[C@@H]3O2)CC1 [Compound 98]	19.5 nM	3.39 nM	42.7 nM	9550 nM				
Fc1ccc(OCCN2CCN(CC3CC4c5ccccc5Cc5ccc(F)cc5C4O3)CC2)cc1 (stereo not drawn) [Compound 54]	8.13 nM	7.59 nM	2.45 nM	2190 nM				
O=C(O)C(=O)O.OC1CCN(CC2CC3c4ccccc4Oc4ccc(F)cc4C3O2)CC1 (racemic) [Compound 282]					6.93	7.00	6.10	<5
O=C(NCc1cccc(C(F)(F)F)c1)N1CCN(CC2CC3c4ccccc4Cc4ccc(F)cc4C3O2)CC1 (stereo not drawn) [Compound 101]	12 nM	5.75 nM	17.4 nM	8910 nM				
OCCC1CN(C[C@H]2C[C@@H]3c4ccccc4Cc4ccc(F)cc4[C@@H]3O2)CCO1 (stereo partly drawn) [Compound 129]	7.59 nM	< 10 nM	29.5 nM	417 nM				
O=C(OCc1ccccc1)N1CCN(CC2CC3c4ccccc4Cc4ccc(F)cc4C3O2)CC1 (stereo not drawn) [Compound 85]	63.1 nM	66.1 nM		> 10000 nM				
